For nine compounds, EC50 results are on record in patent publication US10336711B2, “Prolyl hydroxylase inhibitors” (GlaxoSmithKline, LLC, priority 2006, dated 2019).

As usually defined, the EC50 is the concentration needed to bring the measured effect to its halfway point. A lower EC50 goes with higher potency in that assay.

The test system of the assay is Hep3B cells. Nature of the assay: Epo protein produced by Hep3B cell line using ELISA method. In kind it is cell-based. The note with it: Homo sapiens, 48 Hours incubation, 100 micromolar the maximum concentration tested. Here is the method: Measure Epo Protein Produced by Hep3B Cell Line Using ELISA Method.
Hep3B cells obtained from the American Type Culture Collection (ATCC) are seeded at 2×10^4 cells/well in Dulbecco's Modified Eagle Medium (DMEM)+10% FBS in 96-well plates. Cells are incubated at 37deg C./5% CO2/90% humidity (standard cell culture incubation conditions). After overnight adherence, medium is removed and replaced with DMEM without serum containing test compound or DMSO negative control. Following 48 Hours incubation, cell culture medium is collected and assayed by ELISA to quantitate Epo protein.

As to `O=C(O)CNC(=O)c1c(O)n(-c2ccccn2)c(=O)n(Cc2ccccc2)c1=O` [Example 8, N-{[6-Hydroxy-2,4-dioxo-3-(phenylmethyl)-1-(2-pyridinyl)-1,2,3,4-tetrahydro-5-pyrimidinyl]carbonyl}glycine], the EC50 is greater than 100 µM.

In turn, `O=C(O)CNC(=O)c1c(O)n(-c2ccccc2[N+](=O)[O-])c(=O)n(Cc2ccccc2)c1=O` [Example 9, N-{[6-Hydroxy-1-(2-nitrophenyl)-2,4-dioxo-3-(phenylmethyl)-1,2,3,4-tetrahydro-5-pyrimidinyl]carbonyl}glycine] came in with an EC50 greater than 100 µM. The compound `CC(C)(C)c1ccc(Cn2c(=O)c(C(=O)NCC(=O)O)c(O)n(-c3ccccc3-c3ccccc3)c2=O)cc1` [Example 31, N-[(1-(2-Biphenylyl)-3-{[4-(1,1-dimethylethyl)phenyl]methyl}-6-hydroxy-2,4-dioxo-1,2,3,4-tetrahydro-5-pyrimidinyl)carbonyl]glycine] came in with an EC50 greater than 100 µM.

With `CC1(C)CCC(C)(C)c2cc(Cn3c(=O)c(C(=O)NCC(=O)O)c(O)n(C4CCCCC4)c3=O)ccc21` [Example 39, N-({1-Cyclohexyl-6-hydroxy-2,4-dioxo-3-[(5,5,8,8-tetramethyl-5,6,7,8-tetrahydro-2-naphthalenyl)methyl]-1,2,3,4-tetrahydro-5-pyrimidinyl}carbonyl)glycine], the EC50 is greater than 100 µM. The value for `O=C(O)CCCCCn1c(O)c(C(=O)NCC(=O)O)c(=O)n(C2CCCCC2)c1=O` [Example 93, 6-[5-{[(Carboxymethyl)amino]carbonyl}-3-cyclohexyl-6-hydroxy-2,4-dioxo-3,4-dihydro-1(2 H)-pyrimidinyl]hexanoic acid] was greater than 100 µM.

`O=C(O)CNC(=O)c1c(O)n(C2CCCCC2)c(=O)n(CCCN2CCOCC2)c1=O` [Example 35, N-({1-Cyclohexyl-6-hydroxy-3-[3-(4-morpholinyl)propyl]-2,4-dioxo-1,2,3,4-tetrahydro-5-pyrimidinyl}carbonyl)glycine] gave an EC50 greater than 100 µM. The value for `O=C(O)CNC(=O)c1c(O)n(-c2cccc3ccccc23)c(=O)n(C2CCCCC2)c1=O` [Example 88, N-{[3-Cyclohexyl-6-hydroxy-1-(1-naphthalenyl)-2,4-dioxo-1,2,3,4-tetrahydro-5-pyrimidinyl]carbonyl}glycine] was greater than 100 µM; that for `O=C(O)CCCCCn1c(O)c(C(=S)NCC(=O)O)c(=O)n(C2CCCCC2)c1=O` [Example 94, 6-[5-{[(Carboxymethyl)amino]carbonothioyl}-3-cyclohexyl-6-hydroxy-2,4-dioxo-3,4-dihydro-1(2 H)-pyrimidinyl]hexanoic acid] was greater than 100 µM; that for `CCOC(=O)CNC(=S)c1c(O)n(C2CCCCC2)c(=O)n(C2CCCCC2)c1=O` [Example 91, Ethyl N-[(1,3-dicyclohexyl-6-hydroxy-2,4-dioxo-1,2,3,4-tetrahydro-5-pyrimidinyl)carbonothioyl]glycinate] was greater than 100 µM.
